Data as given in the supplement of paper PMC8837787.

System: Saccharomyces cerevisiae ABC16-Green Monster
Settings: 18 h; 30 °C; YPD
Procedure, shortened: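 IC50 values come from GraphPad Prism fits of log(inhibitor) versus response, with variable slope, applied to background-subtracted optical density. The assay used 96-well plates holding 200 µl per well of log-phase drug-sensitive S. cerevisiae ABC16-Green Monster in YPD. Compound was added as eight 1:2 dilutions spanning final concentrations of 0.1–150 μM, in biological duplicate, and plates were kept at 30 °C for 18 h, with OD600 measured at 0 h and 18 h.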

Compound	IC50 growth inhibition [µM]
COC(=O)c1ccc(C(=O)OC)c(N2C(=O)C=CC2=O)c1	67.7
CN(C)c1ccc(C(O)(c2ccc(N(C)C)cc2)c2ccc(N(C)C)cc2)cc1	0.317
COc1cc(C)c2c(Oc3cccc(C(F)(F)F)c3)c(OC)cc(NC(C)CCCN)c2n1 (stereo not drawn) [Tafenoquine]	101
CC(C)c1csc(NC(=O)c2cnn(-c3ccccc3F)c2C(F)(F)F)n1	31.3
CCCn1c(NC(=O)c2ccc3ccccc3n2)nc2ccccc21	40
COc1ccc(C2Sc3ccccc3N=C3C2=C(O)c2ccccc23)cc1 (stereo not drawn) [GNF-Pf-5129]	3.97
c1ccc(-c2cc(N3CCCCC3)c3ccccc3n2)nc1	42.9
OC(CNCC1CCCO1)Cn1c2ccc(Cl)cc2c2cc(Cl)ccc21 (stereo not drawn)	4.91
O=C(Nc1nc(-c2ccccn2)cs1)c1ccccc1Br	8.35
FC(F)(F)c1ccc(N(c2cccnc2)C2CCN(c3ccc(C(F)(F)F)cn3)CC2)cc1	40
Cn1cc(CN2CCc3c(c(C(=O)NCc4nccs4)nn3Cc3ccccc3)C2)c2ccccc21	109
CCOc1cccc2sc(N(Cc3cccnc3)C(=O)C3CCCCC3)nc12	25.7
N=C(N)Nc1ccc(-c2ccc(-c3ccc(NC(=N)N)cc3Cl)o2)c(Cl)c1	44.5
Cc1ccc2nc(-c3ccc(N(C)C)cc3)[nH]c2c1	11.8
CN(C)C(=N)N=C(N)N [Metformin]	> 75
Cc1[nH]c2ccccc2c(=O)c1CC=C(Cl)Cl [GNF-Pf-4439]	> 150
NC(=O)NO [Hydroxyurea]	> 75
COC1CC2CCC(C)C(O)(O2)C(=O)C(=O)N2CCCCC2C(=O)OC(C(C)CC2CCC(O)C(OC)C2)CC(=O)C(C)C=C(C)C(O)C(OC)C(=O)C(C)CC(C)C=CC=CC=C1C (stereo not drawn) [Rapamycin]	0.727
CCC(C)C1OC2(CCC1C)CC1CC(CC=C(C)C(OC3CC(OC)C(OC4CC(OC)C(O)C(C)O4)C(C)O3)C(C)C=CC=C3COC4C(O)C(C)=CC(C(=O)O1)C34O)O2 (stereo not drawn) [Ivermectin]	> 75
OCCc1ccc(Nc2nccc(-c3nnc4ccccn34)n2)cc1	43.9
c1ccc(-c2cn3nc(NCc4ccccc4CN4CCOCC4)sc3n2)cc1	106
Cc1cc(C(=O)ONC(=N)c2ccccc2)nn1C(C)(C)C	63.5

Compound	IC50 growth inhibition [µM]
Cc1cc(C2CCCCC2)n(O)c(=O)c1 [Ciclopirox]	33.4
COC1=CC(=O)CC(C)C12Oc1c(Cl)c(OC)cc(OC)c1C2=O (stereo not drawn) [Griseofulvin]	> 75
FC(F)Sc1ccc2nc3ccccc3c(N3CCOCC3)c2c1	30
CCS(=O)(=O)N1Cc2ccccc2CC1C(=O)Nc1nc2ccc(F)cc2s1 (stereo not drawn)	74
Cc1ccc(NC(=O)c2ccc(CN3CCN(C)CC3)cc2)cc1Nc1nccc(-c2cccnc2)n1 [Imatinib]	> 75
CCOc1ccc(Oc2ccc(S(=O)(=O)NC(C)c3ccncc3)cc2)cc1 (stereo not drawn)	51.1
Oc1c(C(Nc2ccccn2)c2cccc(Cl)c2Cl)ccc2cccnc12 (stereo not drawn) [GNF-Pf-5250]	> 150
C=CCc1c(C)nc2c(-c3ccccc3)cnn2c1N1CCN(CCO)CC1	62.8
Cc1ccc(C2Sc3ccccc3N=C3C2=C(O)c2ccccc23)cc1 (stereo not drawn) [GNF-Pf-5468]	4.95
COc1ccccc1NC(=O)c1ccc(NC(=O)Cn2ncc(Cl)c(Cl)c2=O)cc1	0.238
Cc1cc(C(=O)Cn2cnc3ccccc3c2=O)c(C)n1-c1ccccc1	61
O=C(Nc1ccc(N2CCNCC2)cc1)c1ccn2ncc(-c3cccc(Cl)c3)c2n1	8
O=C1NCN(c2ccccc2)C12CCN(CCCC(c1ccc(F)cc1)c1ccc(F)cc1)CC2 [Fluspirilene]	23.3
CN1CCN(c2ccccc2NC(=O)c2cccc(Oc3ccccc3)c2)CC1	98.9
CC[C@@H]([C@H](C)O)n1ncn(-c2ccc(N3CCN(c4ccc(OC[C@@H]5CO[C@@](Cn6cncn6)(c6ccc(F)cc6F)C5)cc4)CC3)cc2)c1=O	50
CN(C)c1oc(-c2ccc(Cl)cc2Cl)nc1[P+](c1ccccc1)(c1ccccc1)c1ccccc1 [GNF-Pf-2545]	4.53
CN[C@H]1C[C@@H](N)[C@H](O)[C@@H](O[C@@H]2O[C@H](CO)[C@H](O)[C@@H]3O[C@@]4(O[C@H]23)O[C@H]([C@H](N)CO)[C@H](O)[C@H](O)[C@H]4O)[C@@H]1O [Hygromycin B]	13.8
O=C(NC1CC1)c1ccc(N2CCOc3ccc(Cl)cc32)s1	32.6
CCC1(O)CC2CN(CCc3c([nH]c4ccccc34)C(C(=O)OC)(c3cc4c(cc3OC)N(C)C3C(O)(C(=O)OC)C(OC(C)=O)C5(CC)C=CCN6CCC43C65)C2)C1 (stereo not drawn) [Vinblastine]	> 75
CNc1ncc2cc(-c3cc(NC(=O)NCCC(C)(C)C)c(F)cc3C)c(C)nc2n1 [DP-4978]	> 150
CC1COC(Cn2cncn2)(c2ccc(Oc3ccc(Cl)cc3)cc2Cl)O1 (stereo not drawn) [Difenoconazole]	3.17
